Test results from patent US20120118175A1, “TREATMENT TO REDUCE MICROORGANISMS WITH CARBON DIOXIDE BY MULTIPLE PRESSURE OSCILLATIONS” (SAFEFRESH TECHNOLOGIES, LLC, priority 2004, published 2012).
“And” between values parts separate entries of the source, which are not always exact repeats. Equal entries are not always repeated.

How the values were obtained:
[1] = test system: Meat Normal Flora; assay: Un-inoculated meat exposed to CO2 in a supercritical fluid extractor, bacterial plate count; format: cell-based; details: for CFU/g / Logs: control 7.53 logs, listed as CO2
Method: (§1) Each meat sample was placed into a sterile bag and weighed, a known volume of sterile buffer was added as a diluent and the meat sample homogenized in a ‘Stomacher’. This suspension was then further diluted as 1:10 dilutions and duplicate 1 ml samples were plated onto the surface of agar media formulated for the enumeration of E. coli 0157. The bacterial levels were recorded as colony forming units CFU per g. or as log 10 of that number.
The above experiments used the most exacting conditions available given the reactor equipment. The survival of natural microflora of meat when treated with carbon dioxide in the super critical range was also investigated.
In the Dairy Science chemistry research lab in Call Hall (KSU), equipment is available to achieve temperatures and pressures above the critical point of carbon dioxide (a Pepmaster GA made by the Suprex Corp.). This device is mainly used for lipid extraction from natural materials prior to further analysis.
The tests were undertaken to determine the efficacy of supercritical carbon dioxide using laboratory equipment shown schematically in FIGS. 8 and 9.
The sample cells 2 in parallel hold about 4 gr of sample which is sufficient to do microbial analysis and the equipment could control pressure up to about 7500 psig, temperature (above ambient), and time. Introduction of E. coli 0157 meat into the lab was not possible. […]

[2] = test system: E. coli 0157; assay: Inoculated meat cubes treated with carbon dioxide in high pressure reactor, E. coli 0157 plate count; format: cell-based
Method: To carry out the experiments, a high pressure reactor was designed to the following specifications. • A vessel built to withstand about 3000 psig with top and bottom vents for the addition/venting of carbon dioxide gas as required. • An analog pressure gauge. • A digital temperature recorder on the top vent from the vessel. • A pH probe that could be raised/lowered into the center of the reactor top. • A supply of liquid carbon dioxide at about 300 psi and −20° C. • A supply of gaseous carbon dioxide heated to about 56° C. in a hot water bath. • A supplementary probe to measure the temperature of the reactor barrel surface. • Lap top computer to record temperature data.
FIG. 8 is a schematic illustration of laboratory equipment 800 used in carrying out various tests of the treatment of meat with carbon dioxide. The apparatus 800 includes pressure cylinders 804, 806, and 808 with high-pressure piping 824, pressure release safety valve 828 and on/off valves 812, 814, 816, 818, 820, and 822. Meat samples, having been inoculated, are suspended from a centrally located shaft within the cylinder 804 and the upper member 802 is bolted to the cylinder 804 in a manner that substantially ensures a leak-proof and pressure tight seal. A stream of fluid carbon dioxide 824 that progressively turns to liquid is transferred into the cylinder 804 until the suspended meat samples therein are immersed in the liquid carbon dioxide. After a recorded and selected period of time, the liquid carbon dioxide is removed from the cylinder 804 and the pressure therein reduced to ambient atmospheric pressure. The samples can then be removed from the cylinder and the reduction of bacteria population determined. The items 806 and 808 are commonly referred to as an intensifier. Opening valve 812 allows filling the cylinder 806 with low pressure fluid carbon dioxide, and then, after isolation of the lower pressure source of the fluid carbon dioxide, a piston in cylinder 808 is activated by hydraulic oil from line 826 (or high-pressure air or gas) and a smaller diameter piston in cylinder 806 compresses the fluid carbon dioxide and elevates the pressure. The higher pressure carbon dioxide fluid in line 824 is then transferred to cylinder 804 via a selected path through high-pressure piping 824 as shown.
Cell cultures were grown overnight in a nutrient broth. The cells were separated by centrifugation and washed in a sterile buffer. The E. coli cell suspension was then diluted to give log 7-9 cell per ml.
Meat was purchased at a local retail store. The meat was aseptically cut into 1 inch cubes and suspended by attachment to sterile fish hooks. Meat samples were then placed into an inoculation chamber where they were sprayed with about 10 mls of the cell inoculum. This was done ensuring that all 6 sides of each piece of meat received the same exposure to the E. coli. The samples were then allowed to stand for about 30 minutes at room temperature to achieve the attachment of the E. coli to the meat. One of these meat samples was immediately taken and analyzed for E. coli (as a control). The remaining inoculated samples were then placed into the reactor and the experiment started.
One (1) inch meat cube samples were suspended from the pH probe using small fishing hooks and line so that the cubes were suspended in the bottom third of the reactor and were neither touching each other nor the walls of the vessel.
as §1
The methodology was as stated above. The reactor contained inoculated meat. […]

[3] = Experiment 4: 1470 psi @ 29° C., 5 min
[4] = Experiment 4: 3000 psi @ 29° C., 5 min
[5] = Experiment 1: 300-1000 psi, 10 min
[6] = Experiment 3: 1000 psi @ 13° C. held 4 hours, analyzed immediately, control 7.87 logs, listed as Liquid CO2

With O=C=O [carbon dioxide] the “log bacteria reduction versus control” value ([1]; Experiment 4: 1470 psi @ 29° C. (line 21B)) was about 1 log, the CFU/g [1, 3] was 5,233,644.9 CFU/g and 9,523,809.5 CFU/g and the Logs [1, 3] was 6.72 Logs and 6.98 Logs. For the same molecule, the “log bacteria reduction versus control” value ([1]; Experiment 4: 3000 psi @ 29° C. (lines 22C and 23D)) was about 1 log, the CFU/g [1, 4] was 9,029,345.4 CFU/g and 5,154,639.2 CFU/g and the Logs [1, 4] was 6.96 Logs and 6.71 Logs. The “log bacteria after the test” value ([1]; Experiment 5: 3000 psi, 36° C., 5 min (mean of replicates)) was 5.53 log, the “log reduction versus control” value ([1]; Experiment 5: supercritical, 3000 psi, 36° C., 5 min) was ~2 log and 1.83 log and the “average of the 3 test samples” value [2, 5] was 7.22 log. The “log reduction versus control” value [2, 5] was 0.47 log, the “average of the test samples” value ([2]; Experiment 2: -17° C. at 300 psig, then 1000 psig 5 min) was 6.5 log and the “log reduction versus control” value ([2]; Experiment 2: -17° C. at 300 psig, then 1000 psig 5 min, meat frozen, listed as Liquid CO2) was ~1 log and 1.27 log. For the same molecule, the CFU/g [2, 6] was 8,741,258.7 CFU/g and 14,344,362.3 CFU/g and 8,467,741.9 CFU/g, the Logs [2, 6] was 6.94 Logs and 7.16 Logs and 6.93 Logs and the “log reduction versus control” value ([2]; Experiment 3: 1000 psig 4 hours, analyzed immediately) was ~1 log and 0.86 log. The “further log kill by storage” value ([2]; Experiment 3: storage in about 100% carbon dioxide at about 4° C. for 4 days after treatment) was 2.83 log, the “destruction of E. coli 0157 on meat surfaces” value ([2]; liquid carbon dioxide in the sub critical range alone) was “no practical significance” and the “log kill with liquid carbon dioxide” value ([2]; liquid carbon dioxide, experiment not specified) was about 0.5 log.
